Measurements reported in the supplement of paper PMC10307832.

What was measured:
Assay in all cases: relative viability (nuclei count vs DMSO), 5 days (fraction); higher = more cells survive
Cediranib + Tozasertib = compound: COc1cc2c(Oc3ccc4[nH]c(C)cc4c3F)ncnc2cc1OCCCN1CCCC1 [Cediranib] + Cc1cc(Nc2cc(N3CCN(C)CC3)nc(Sc3ccc(NC(=O)C4CC4)cc3)n2)n[nH]1 [Tozasertib] (partner 0.1 µM)
In short: (§1)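 Relative viability divides the nuclei count in treated wells by that in vehicle wells. Lung cancer cell lines were seeded in 1536-well plates, dosed by pin tool the next day, and fixed and stained after 5 days in one step with final 0.05% Triton X-100, 1% formaldehyde and 1 ug/ml Hoechst. Dosing was a single drug or a fixed anchor-drug dose plus five library-drug doses (not always all listed) in √10 steps, and values are medians of duplicate plates imaged at 4×.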

Cediranib + OSI-027 = compound: COc1cc2c(Oc3ccc4[nH]c(C)cc4c3F)ncnc2cc1OCCCN1CCCC1 [Cediranib] + COc1cccc2cc(-c3nc([C@H]4CC[C@H](C(=O)O)CC4)n4ncnc(N)c34)[nH]c12 [OSI-027] (partner 0.5 µM)
In short: as §1

Halofuginone + Alpelisib = compound: O=C(C[C@H]1NCCC[C@@H]1O)Cn1cnc2cc(Br)c(Cl)cc2c1=O (racemic) [Halofuginone] + Cc1nc(NC(=O)N2CCC[C@H]2C(N)=O)sc1-c1ccnc(C(C)(C)C(F)(F)F)c1 [Alpelisib] (partner 2 µM)
In short: as §1

Halofuginone + Dasatinib = compound: O=C(C[C@H]1NCCC[C@@H]1O)Cn1cnc2cc(Br)c(Cl)cc2c1=O (racemic) [Halofuginone] + Cc1nc(Nc2ncc(C(=O)Nc3c(C)cccc3Cl)s2)cc(N2CCN(CCO)CC2)n1 [Dasatinib] (partner 0.075 µM)
In short: as §1

Cell Line | relative viability (Cediranib + Tozasertib; first compound 0.04 µM) | relative viability (Cediranib + Tozasertib; first compound 0.1265 µM) | relative viability (Cediranib + Tozasertib; first compound 0.4 µM) | relative viability (Cediranib + Tozasertib; first compound 1.265 µM) | relative viability (Cediranib + Tozasertib; first compound 4 µM) | relative viability (Cediranib + OSI-027; first compound 0.04 µM) | relative viability (Cediranib + OSI-027; first compound 0.1265 µM) | relative viability (Cediranib + OSI-027; first compound 0.4 µM) | relative viability (Cediranib + OSI-027; first compound 1.265 µM) | relative viability (Cediranib + OSI-027; first compound 4 µM) | relative viability (Halofuginone + Alpelisib; first compound 0.001 µM) | relative viability (Halofuginone + Alpelisib; first compound 0.003162 µM) | relative viability (Halofuginone + Alpelisib; first compound 0.01 µM) | relative viability (Halofuginone + Alpelisib; first compound 0.03162 µM) | relative viability (Halofuginone + Alpelisib; first compound 0.1 µM) | relative viability (Halofuginone + Dasatinib; first compound 0.001 µM) | relative viability (Halofuginone + Dasatinib; first compound 0.003162 µM) | relative viability (Halofuginone + Dasatinib; first compound 0.01 µM) | relative viability (Halofuginone + Dasatinib; first compound 0.03162 µM) | relative viability (Halofuginone + Dasatinib; first compound 0.1 µM)
PC-14 | 0.711 | 0.651 | 0.585 | 0.61 | 0.483 | 0.993 | 0.894 | 0.735 | 0.61 | 0.724 | 0.985 | 1.01 | 0.878 | 0.724 | 0.428 | 0.259 | 0.305 | 0.189 | 0.0636 | 0.03
NCI-H322M | 0.484 | 0.564 | 0.473 | 0.424 | 0.486 | 0.541 | 0.567 | 0.535 | 0.52 | 0.538 | 0.516 | 0.879 | 0.777 | 0.802 | 0.768 | 0.27 | 0.26 | 0.251 | 0.208 | 0.212
NCI-H1666 | 0.651 | 0.678 | 0.598 | 0.595 | 0.624 | 0.9 | 0.809 | 0.891 | 0.802 | 0.805 | 0.936 | 0.791 | 0.857 | 0.92 | 0.607 | 0.812 | 0.802 | 0.753 | 0.766 | 0.664
A-427 | 0.208 |  | 0.198 | 0.237 | 0.217 | 0.515 |  | 0.339 | 0.361 | 0.405 | 1.07 | 1.14 | 1.05 | 0.978 | 0.94 | 0.744 | 0.773 | 0.678 | 0.723 | 0.643
NCI-H1651 | 0.619 | 0.696 | 0.596 | 0.676 | 0.815 | 0.59 | 0.652 | 0.721 | 0.606 | 0.778 | 0.906 | 0.9 | 0.889 | 0.66 | 0.278 | 0.526 | 0.494 | 0.377 | 0.258 | 0.162
NCI-H1793 | 0.414 | 0.419 | 0.347 |  | 0.329 | 0.271 | 0.276 | 0.245 |  | 0.301 | 0.687 | 0.666 | 0.623 | 0.722 | 0.396 | 0.374 | 0.37 | 0.418 | 0.468 | 0.296
NCI-H520 | 0.57 | 0.35 | 0.543 |  | 0.426 | 0.403 | 0.239 | 0.211 | 0.202 | 0.226 | 0.792 | 0.767 | 0.911 | 0.761 | 0.295 | 0.215 | 0.173 | 0.175 | 0.16 | 0.17
201T | 1.1 | 1.19 | 0.875 | 0.966 | 0.889 | 0.945 | 0.841 | 0.671 | 0.717 | 0.692 | 1.04 | 1.01 | 1.01 | 0.998 | 0.841 | 0.595 | 0.586 | 0.572 | 0.543 | 0.306
NCI-H460 | 0.494 | 0.391 | 0.429 | 0.603 | 0.355 | 0.852 | 0.684 | 0.573 | 0.605 | 0.613 | 0.62 | 0.495 | 0.464 | 0.214 | 0.0177 | 0.571 | 0.542 | 0.445 | 0.349 | 0.157
NCI-H596 | 1.13 | 0.891 | 0.782 |  | 0.986 | 0.775 | 0.815 | 0.723 |  | 0.788 | 0.478 | 0.467 | 0.453 | 0.544 | 0.465 | 0.538 | 0.533 | 0.598 | 0.559 | 0.366
HARA | 0.125 |  | 0.107 | 0.118 | 0.123 | 0.367 |  | 0.446 | 0.353 | 0.657 | 1.05 | 0.817 | 0.836 | 0.839 | 0.743 | 0.273 | 0.225 | 0.304 | 0.276 | 0.191
NCI-H2170 | 0.846 | 0.659 | 0.735 | 0.677 | 0.787 | 0.619 | 0.529 | 0.691 | 0.611 | 0.786 | 0.863 | 0.846 | 0.799 | 0.681 | 0.656 | 0.623 | 0.639 | 0.575 | 0.444 | 0.473
NCI-H2126 | 0.84 | 0.916 | 0.77 | 0.777 | 0.773 | 0.649 | 0.577 | 0.668 | 0.597 | 0.537 | 0.71 | 0.74 | 0.696 | 0.734 | 0.698 | 0.661 | 0.663 | 0.635 | 0.562 | 0.405
HCC-827 | 0.529 |  | 0.407 | 0.414 | 0.351 | 0.751 |  | 0.737 | 0.74 | 0.671 | 0.98 | 0.959 | 0.908 | 1.07 | 0.815 | 0.249 | 0.415 | 0.31 | 0.493 | 0.359
ABC-1 | 0.161 | 0.179 | 0.186 |  | 0.191 | 0.447 | 0.651 | 0.532 |  | 0.437 | 1.2 | 0.936 | 1 | 0.947 | 1.03 | 0.586 | 0.626 | 0.453 | 0.476 | 0.487
NCI-H650 | 0.739 | 0.563 | 0.709 | 0.774 | 0.707 | 0.485 | 0.521 | 0.508 | 0.499 | 0.542 | 1.23 | 1.35 | 1.16 | 1.08 | 0.675 | 0.528 | 0.478 | 0.47 | 0.452 | 0.367
BEN | 0.446 |  | 0.554 |  | 0.627 | 0.308 |  | 0.28 | 0.311 | 0.286 | 0.974 | 1.12 | 1.1 | 0.975 | 0.478 | 0.345 | 0.318 | 0.331 | 0.36 | 0.229
